Experimental data taken from PubChem BioAssay AID248 (DTP/NCI, 2004).
Where “and” joins values, the source holds several entries; their conditions need not be identical. Equal entries are not always repeated. Inconclusive results and toxic doses are left out.

Test system: L1210 leukemia ip in BDF1 mice, survival T/C
Experiment: NCI In Vivo Anticancer Drug Screen. Data for tumor model L1210 Leukemia (intraperitoneal) in B6D2F1 (BDF1) mice
Details: endpoint: mean survival time, higher = longer survival
In short: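 In this screen, tumor-bearing mice given compound are compared to those given vehicle, and their survival values are reported as a treated-to-control quotient.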

[1] = dose: 50.0 mg/kg/injection, schedule: Q01DX009 (ip), vehicle: saline with Tween-80
[2] = dose: 100.0 mg/kg/injection, schedule: Q01DX001 (ip), vehicle: saline with Tween-80
[3] = dose: 100.0 mg/kg/injection, schedule: Q01DX009 (ip), vehicle: saline with Tween-80
[4] = dose: 100.0 mg/kg/injection, schedule: Q04DX002 (ip), vehicle: saline with Tween-80
[5] = dose: 100.0 mg/kg/injection, schedule: Q04DX003 (ip), vehicle: saline with Tween-80
[6] = dose: 200.0 mg/kg/injection, schedule: Q01DX001 (ip), vehicle: saline with Tween-80
[7] = dose: 200.0 mg/kg/injection, schedule: Q04DX002 (ip), vehicle: saline with Tween-80
[8] = dose: 100.0 mg/kg/injection, schedule: Q01DX009 (ip), vehicle: Klucel (hydroxypropylcellulose) (HPC)
[9] = dose: 100.0 mg/kg/injection, schedule: Q04DX003 (ip), vehicle: Klucel (hydroxypropylcellulose) (HPC)
[10] = dose: 200.0 mg/kg/injection, schedule: Q01DX009 (ip), vehicle: Klucel (hydroxypropylcellulose) (HPC)
[11] = dose: 200.0 mg/kg/injection, schedule: Q04DX003 (ip), vehicle: Klucel (hydroxypropylcellulose) (HPC)
[12] = dose: 400.0 mg/kg/injection, schedule: Q04DX003 (ip), vehicle: Klucel (hydroxypropylcellulose) (HPC)
[13] = dose: 400.0 mg/kg/injection, schedule: Q01DX009 (ip), vehicle: Klucel (hydroxypropylcellulose) (HPC)
[14] = dose: 25.0 mg/kg/injection, schedule: Q01DX009 (ip), vehicle: saline with Tween-80

COC(=O)N1c2ccccc2C=CC1C#N (configuration not stated)
T/C (dose: 44.0 mg/kg/injection, schedule: Q04DX002 (ip), vehicle: saline with Tween-80): 151 % of control | T/C (dose: 44.0 mg/kg/injection, schedule: Q04DX003 (ip), vehicle: saline with Tween-80): 109 % of control | T/C (dose: 44.0 mg/kg/injection, schedule: Q04DX003 (ip), vehicle: saline): 108 % of control | T/C [1]: 104 % of control | T/C (dose: 66.0 mg/kg/injection, schedule: Q04DX002 (ip), vehicle: saline with Tween-80): 173 % of control | T/C (dose: 66.0 mg/kg/injection, schedule: Q04DX003 (ip), vehicle: saline with Tween-80): 103 % of control | T/C (dose: 66.0 mg/kg/injection, schedule: Q04DX003 (ip), vehicle: saline): 101 % of control | T/C [2]: 106 % of control | T/C [3]: 96 % of control | T/C [4]: 189 % of control | T/C [5]: 109 % of control and 209 % of control | T/C (dose: 100.0 mg/kg/injection, schedule: Q04DX003 (ip), vehicle: saline): 106 % of control | T/C [6]: 106 % of control | T/C (dose: 200.0 mg/kg/injection, schedule: Q01DX009 (ip), vehicle: saline with Tween-80): 102 % of control | T/C [7]: 156 % of control | T/C (dose: 200.0 mg/kg/injection, schedule: Q04DX003 (ip), vehicle: saline): 111 % of control | T/C (dose: 400.0 mg/kg/injection, schedule: Q01DX001 (ip), vehicle: saline with Tween-80): 104 % of control | T/C (dose: 400.0 mg/kg/injection, schedule: Q04DX003 (ip), vehicle: saline with Tween-80): 96 % of control

O=C(C(=O)N1CC1)c1c[nH]c2ccccc12
T/C (dose: 25.0 mg/kg/injection, schedule: Q04DX003 (ip), vehicle: saline with Tween-80): 95 % of control | T/C (dose: 50.0 mg/kg/injection, schedule: Q04DX003 (ip), vehicle: saline with Tween-80): 91 % of control | T/C [5]: 95 % of control

CCCCC(/C=C1/CCCCC1=O)CC (configuration not stated)
T/C [8]: 97 % of control | T/C [9]: 92 % of control | T/C [10]: 97 % of control | T/C [11]: 103 % of control | T/C [12]: 97 % of control

CCOC(=O)CC1=CCCCC1
T/C [8]: 103 % of control | T/C [9]: 102 % of control | T/C [10]: 107 % of control | T/C [11]: 96 % of control | T/C [13]: 98 % of control | T/C [12]: 86 % of control

O=[N+]([O-])c1cccc(N=P(c2ccccc2)(c2ccccc2)c2ccccc2)c1
T/C [8]: 95 % of control | T/C [9]: 117 % of control | T/C [10]: 95 % of control | T/C [11]: 95 % of control | T/C [13]: 88 % of control | T/C [12]: 88 % of control

CONCC(=O)c1ccc(SC)cc1
T/C (dose: 100.0 mg/kg/injection, schedule: Q01DX001 (ip), vehicle: saline): 106 % of control | T/C (dose: 200.0 mg/kg/injection, schedule: Q01DX001 (ip), vehicle: saline): 97 % of control | T/C (dose: 400.0 mg/kg/injection, schedule: Q01DX001 (ip), vehicle: saline): 100 % of control

CC1CNC(=O)C(=O)N1 (configuration not stated)
T/C (dose: 100.0 mg/kg/injection, schedule: Q04DX002 (ip), vehicle: saline): 98 % of control | T/C (dose: 200.0 mg/kg/injection, schedule: Q04DX002 (ip), vehicle: saline): 102 % of control | T/C (dose: 400.0 mg/kg/injection, schedule: Q04DX002 (ip), vehicle: saline): 94 % of control

C#CCN(CCCC)CCCC
T/C [4]: 95 % of control | T/C [7]: 100 % of control

Cc1ccc2[nH]c(=S)[nH]c2c1
T/C [2]: 101 % of control | T/C [6]: 106 % of control

OC(CC(O)(C(F)(F)F)C(F)(F)F)c1cccc(C(F)(F)F)c1 (configuration not stated)
T/C (dose: 100.0 mg/kg/injection, schedule: Q01DX009 (ip), vehicle: other): 96 % of control | T/C (dose: 100.0 mg/kg/injection, schedule: Q04DX003 (ip), vehicle: other): 101 % of control | T/C (dose: 200.0 mg/kg/injection, schedule: Q01DX009 (ip), vehicle: other): 96 % of control | T/C (dose: 400.0 mg/kg/injection, schedule: Q01DX009 (ip), vehicle: other): 96 % of control | T/C (dose: 400.0 mg/kg/injection, schedule: Q04DX003 (ip), vehicle: other): 92 % of control

CSc1cc(C(=O)Nc2ccc(C3=NCCN3)cc2)cc(C(=O)Nc2ccc(C3=NCCN3)cc2)c1
T/C (dose: 2.75 mg/kg/injection, schedule: Q01DX Z (ip), vehicle: carboxymethylcellulose (CMC)): 110 % of control | T/C (dose: 5.5 mg/kg/injection, schedule: Q01DX Z (ip), vehicle: carboxymethylcellulose (CMC)): 102 % of control | T/C (dose: 11.0 mg/kg/injection, schedule: Q01DX Z (ip), vehicle: carboxymethylcellulose (CMC)): 96 % of control | T/C (dose: 22.0 mg/kg/injection, schedule: Q01DX Z (ip), vehicle: carboxymethylcellulose (CMC)): 119 % of control | T/C (dose: 31.0 mg/kg/injection, schedule: Q01DX Z (ip), vehicle: carboxymethylcellulose (CMC)): 225 % of control | T/C (dose: 45.0 mg/kg/injection, schedule: Q01DX Z (ip), vehicle: carboxymethylcellulose (CMC)): 174 % of control | T/C (dose: 62.0 mg/kg/injection, schedule: Q01DX Z (ip), vehicle: carboxymethylcellulose (CMC)): 242 % of control | T/C (dose: 90.0 mg/kg/injection, schedule: Q01DX Z (ip), vehicle: carboxymethylcellulose (CMC)): 168 % of control | T/C (dose: 125.0 mg/kg/injection, schedule: Q01DX Z (ip), vehicle: carboxymethylcellulose (CMC)): 165 % of control | T/C (dose: 180.0 mg/kg/injection, schedule: Q01DX Z (ip), vehicle: carboxymethylcellulose (CMC)): 256 % of control | T/C (dose: 250.0 mg/kg/injection, schedule: Q01DX Z (ip), vehicle: carboxymethylcellulose (CMC)): 157 % of control | T/C (dose: 360.0 mg/kg/injection, schedule: Q01DX Z (ip), vehicle: carboxymethylcellulose (CMC)): 100 % of control

O=C(Cc1ccccc1)NCc1ccccc1Cl
T/C [14]: 103 % of control | T/C [1]: 94 % of control | T/C [3]: 96 % of control and 87 % of control | T/C [4]: 96 % of control | T/C (dose: 150.0 mg/kg/injection, schedule: Q01DX009 (ip), vehicle: saline with Tween-80): 89 % of control | T/C [7]: 107 % of control | T/C (dose: 225.0 mg/kg/injection, schedule: Q01DX009 (ip), vehicle: saline with Tween-80): 94 % of control | T/C (dose: 335.0 mg/kg/injection, schedule: Q01DX009 (ip), vehicle: saline with Tween-80): 91 % of control | T/C (dose: 400.0 mg/kg/injection, schedule: Q04DX002 (ip), vehicle: saline with Tween-80): 111 % of control

NNS(=O)(=O)c1ccc([N+](=O)[O-])cc1
T/C (dose: 12.5 mg/kg/injection, schedule: Q01DX009 (ip), vehicle: Klucel (hydroxypropylcellulose) (HPC)): 109 % of control | T/C (dose: 25.0 mg/kg/injection, schedule: Q01DX009 (ip), vehicle: Klucel (hydroxypropylcellulose) (HPC)): 106 % of control | T/C (dose: 50.0 mg/kg/injection, schedule: Q01DX009 (ip), vehicle: Klucel (hydroxypropylcellulose) (HPC)): 101 % of control

Cc1ccc(S(=O)NOCc2ccccc2)cc1 (configuration not stated)
T/C [9]: 95 % of control | T/C [11]: 105 % of control | T/C [12]: 100 % of control

c1ccc(N=NNc2ccccc2)cc1
T/C (dose: 6.25 mg/kg/injection, schedule: Q01DX009 (ip), vehicle: saline with Tween-80): 100 % of control | T/C (dose: 12.5 mg/kg/injection, schedule: Q01DX009 (ip), vehicle: saline with Tween-80): 94 % of control | T/C [14]: 98 % of control

CCSC(C(OC(C)=O)C(OC(C)=O)C(OC(C)=O)C(COC(C)=O)OC(C)=O)n1cc(C)c(=O)[nH]c1=O (configuration not stated)
T/C (dose: 50.0 mg/kg/injection, schedule: Q01DX001 (ip), vehicle: carboxymethylcellulose (CMC)): 100 % of control and 97 % of control | T/C (dose: 100.0 mg/kg/injection, schedule: Q01DX001 (ip), vehicle: carboxymethylcellulose (CMC)): 97 % of control and 94 % of control | T/C (dose: 200.0 mg/kg/injection, schedule: Q01DX001 (ip), vehicle: carboxymethylcellulose (CMC)): 100 % of control | T/C (dose: 400.0 mg/kg/injection, schedule: Q01DX001 (ip), vehicle: carboxymethylcellulose (CMC)): 100 % of control and 103 % of control

O=C(N/N=C/Cc1ccccc1)C(=O)N/N=C/Cc1ccccc1
T/C [1]: 102 % of control | T/C [3]: 91 % of control

COc1ccc(CC(=O)NCCc2ccc3cc(OC)c(OC)cc3c2)cc1OC
T/C (dose: 100.0 mg/kg/injection, schedule: Q01DX009 (ip), vehicle: saline): 90 % of control | T/C (dose: 200.0 mg/kg/injection, schedule: Q01DX009 (ip), vehicle: saline): 86 % of control | T/C (dose: 400.0 mg/kg/injection, schedule: Q01DX009 (ip), vehicle: saline): 88 % of control
